# From PubChem BioAssay AID743390 (Vanderbilt Specialized Chemistry Center, 2014)
# Target: Phospholipase D1 (Homo sapiens) (UniProt Q13393)
# Test: phospholipase D1 enzyme inhibition confirmation – biochemical, concentration response (AID 743390)
# Settings: purified human PLD1 enzyme activity assay
# Phospholipase D1 (Homo sapiens), sequence (Q13393 whole entry, looked up): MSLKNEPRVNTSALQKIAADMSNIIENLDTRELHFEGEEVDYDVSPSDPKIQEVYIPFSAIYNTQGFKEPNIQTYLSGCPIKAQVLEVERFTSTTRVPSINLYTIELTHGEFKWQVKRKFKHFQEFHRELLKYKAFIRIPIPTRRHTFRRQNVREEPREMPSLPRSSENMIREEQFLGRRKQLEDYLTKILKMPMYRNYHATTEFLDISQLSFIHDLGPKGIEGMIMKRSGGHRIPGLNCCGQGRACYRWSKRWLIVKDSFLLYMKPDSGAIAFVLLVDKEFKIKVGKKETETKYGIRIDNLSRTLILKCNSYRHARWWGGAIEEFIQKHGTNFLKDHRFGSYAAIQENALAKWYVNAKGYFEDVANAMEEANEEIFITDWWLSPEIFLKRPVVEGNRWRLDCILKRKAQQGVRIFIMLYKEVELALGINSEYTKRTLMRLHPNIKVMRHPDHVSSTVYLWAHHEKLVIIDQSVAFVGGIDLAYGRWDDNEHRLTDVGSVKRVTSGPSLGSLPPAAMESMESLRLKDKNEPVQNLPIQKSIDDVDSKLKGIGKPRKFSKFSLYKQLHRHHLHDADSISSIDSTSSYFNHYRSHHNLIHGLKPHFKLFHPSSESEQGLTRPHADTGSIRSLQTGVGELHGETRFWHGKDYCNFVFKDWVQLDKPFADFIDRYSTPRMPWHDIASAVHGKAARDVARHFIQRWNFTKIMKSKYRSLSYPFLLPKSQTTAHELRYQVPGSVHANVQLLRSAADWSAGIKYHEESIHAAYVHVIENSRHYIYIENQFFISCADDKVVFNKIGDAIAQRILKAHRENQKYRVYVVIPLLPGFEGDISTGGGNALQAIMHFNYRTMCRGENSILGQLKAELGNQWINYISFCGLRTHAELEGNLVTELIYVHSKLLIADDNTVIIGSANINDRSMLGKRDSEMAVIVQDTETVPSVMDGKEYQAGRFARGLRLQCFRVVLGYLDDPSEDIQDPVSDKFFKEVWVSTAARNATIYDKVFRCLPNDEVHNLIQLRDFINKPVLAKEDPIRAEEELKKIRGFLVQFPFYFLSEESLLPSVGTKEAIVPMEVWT
row,Structure (SMILES),IC50 [µM]
1,O=C(NCCN1CCC2(CC1)C(=O)NCN2Cc1cccnc1)c1ccc2ccccc2c1,20
2,O=C(NCCN1CCC2(CC1)C(=O)NCN2Cc1cccnc1)c1cc2ccccc2o1,20
